Assay results published in article PMC11530130, “Peripherally restricted PICK1 inhibitor mPD5 ameliorates pain behaviors in murine inflammatory and neuropathic pain models” (JCI Insight, 2024).

Legend:
[1] = tested on: mice, streptozocin (STZ) model of type 1 diabetes; test: STZ model of diabetic neuropathy, von Frey; type: in vivo, mouse; settings: male mice, positive control, dose not given
Procedure: Induction of Diabetic neuropathy (STZ model).
Diabetes was induced by a single i.p. injection of […] streptozocin (STZ) solution (100 μL/10 g, Sigma-Aldrich S0130, batch #WXBB7152V) in male seven-week-old C57BL/6J (Charles River) mice. Glycemia was tested before, and seven days after injection. All injected mice had blood glucose concentration >350 mg/dL from day seven and were used for analgesic testing of the compounds from day 14. One mouse had to be euthanized at seven days post injection. This experiment was performed by Phenotype Expertise, Marseilles, France - Pain and CNS behaviour CRO under supervision of Stéphane Gaillard, PhD (CEO). […]
(§1) The skin wound was closed with two medical clips (Michel Suture Clips, 7.5x1.75 mm, Angthos, 12040-01). Post-surgical analgesia included s.c. injection of 5 mg/kg carprofen (Carprosan vet, 50 mg/mL mixed 1:25 in sterile ddH2O, Dechra, Le Vet Beheer B.V., Netherlands, Batch: 050520) right after surgery and the […]
(§2) following day. […]
(§3) The test battery of the CIBP model was carried out 45 or 90 min after morphine and mPD5 administration respectively to accommodate the peak efficacy […]
(§4) Mechanically evoked pain (von Frey test).
(§5) Unless otherwise specified, von Frey occurred as described in the following. Animals were habituated to the experimental room for a minimum of 60 min before initiation of the experiment. Mechanical paw withdrawal threshold (PWT) was determined by von Frey measurements of both hind paws. Von Frey filaments ranging from 0.04 to 2 g (g = gram- […]
(§6) Filaments in ascending order were applied to the frontocentral plantar surface of the hind paws.
(§7) Mice were placed in PVC plastic boxes (11.5 cm x 14 cm) on a wire mesh and allowed minimum 20 min habituation prior of experiment initiation. Each von Frey hair was applied five times with adequate resting periods between each application and number of withdrawals recorded. The withdrawal threshold was determined as the von Frey filament eliciting at least three positive trials out of the five applications in two consecutive filaments. A positive trial was defined as sudden paw withdrawal, flinching and/or paw licking induced by the filament.
(§8) For the CIBP model, two habituation sessions were performed on separated days with mice placed in the von Frey equipment for 1-1.5 hours in the presence of the experimenter on day one and random von Frey pocking with the 0.6 g filament on day two. Von Frey monofilaments (North Coast Touch Test, North Coast Medical, Inc.) with target forces of 0.04g, 0.07g, 0.16g, […]
(§9) down method” (PWT=10Xf+kδ) starting with the 0.6 g filament. Positive response was defined as; withdrawal, shaking or grooming of paw following a 2-3 second stimulation. In case, of unclear response, stimulus was repeated after 10-15 seconds.
(§10) For the STZ model, the mechanical threshold response of the injected mice was measured with […]
(§11) injection of test compounds on day 14, mechanical threshold was measured at 1 hour, 2 hours, 4 hours and 6 hours and again on day 15. […]
(§12) Thermally evoked pain (Hargreaves test).
A baseline Hargreaves test was performed on day 0 before inflammatory pain was induced as described in section 2.13. In the Hargreaves test, the mouse was placed in a container on a glass table and left to habituate for at least 15 min. Using the Hargreaves apparatus, a heat beam from beneath was directed towards the hind paws of the mouse, and the paw withdrawal time

[2] = tested on: mice, spared nerve injury (SNI) model; type: in vivo, mouse; settings: mouse, in vivo, sc
Procedure: solution (0.05 mg/kg) injected s.c. 30 min before surgery (10 μL/g). For surgery, mice were anaesthetised with ketamine (100 mg/kg, i.p.) and xylazine (10 mg/kg, i.p.) (volume 10 µL/g) with 100 μL of 1% xylocaine solution infiltrated at the site of the incision. The distal trifurcation of the sciatic nerve was identified, and the tibial and common peroneal branches were ligated with polypropylene nonabsorbable 6-0 sutures (Ethicon) and 1 mm was cut out, leaving the sural branch intact. The wound was closed with sutures, and the animals were allowed to recover and returned to their cages. Two subcutaneous injections of buprenorphine (0.05 mg/kg) were performed with an 8 to 12 hours delay decreasing pain due to the surgery […]
The remaining SNI pain experiments were performed in-house using the following procedure.
SNI surgery was performed on the left hindleg of C57BL/6J male and female mice (Janvier, France) under 2% isoflurane anaesthesia. Skin on the lateral surface was incised between hip and knee followed by lengthwise division of the biceps femoris muscle leading to exposure of the three branches of the sciatic nerve. Sural branch was left intact, while the peroneal and tibial branches were ligated with a single surgical knot and axotomized distally of the ligation.
Wounds were closed with surgical glue or medical clips and animals were monitored daily for signs of stress or discomfort, but in all cases recovered uneventfully. […]
as §1, §2, §3, §4, §5, §6, §7, §8, §9, §10, §11, §12
A baseline Hargreaves test was performed on day 0 before inflammatory pain was induced as described in section 2.13. In the Hargreaves test, the mouse was placed in a container on a glass […]

## CC(C)C[C@H](CN)CC(=O)O [pregabalin, reference compound]
[1]
  duration of significant pain relief: up to 4 hours

## CCCCCCCCCCCCCCCCCCCC(=O)N(CCOCCOCCC(=O)N[C@@H](Cc1c[nH]cn1)C(=O)N[C@@H](Cc1c[nH]c2ccccc12)C(=O)N[C@@H](CC(C)C)C(=O)N[C@@H](CCCCN)C(=O)N[C@H](C(=O)O)C(C)C)CCOCCOCCC(=O)N[C@@H](Cc1c[nH]cn1)C(=O)N[C@@H](Cc1c[nH]c2ccccc12)C(=O)N[C@@H](CC(C)C)C(=O)N[C@@H](CCCCN)C(=O)N[C@H](C(=O)O)C(C)C [aPD5, arachidoyl-NPEG4-(HWLKV)2]
[2]
  itching in the mice: profound itching

## CCCCCCCCCCCCCCCCCC(=O)N(CCOCCOCCC(=O)N[C@@H](Cc1c[nH]cn1)C(=O)N[C@@H](Cc1c[nH]c2ccccc12)C(=O)N[C@@H](CC(C)C)C(=O)N[C@@H](CCCCN)C(=O)N[C@H](C(=O)O)C(C)C)CCOCCOCCC(=O)N[C@@H](Cc1c[nH]cn1)C(=O)N[C@@H](Cc1c[nH]c2ccccc12)C(=O)N[C@@H](CC(C)C)C(=O)N[C@@H](CCCCN)C(=O)N[C@H](C(=O)O)C(C)C [sPD5, stearoyl-NPEG4-(HWLKV)2]
[2]
  itching in the mice: profound itching
